Results on 8 molecules are retold here after PubChem BioAssay (NCI).

The structures appear in SMILES notation.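 Growth conditions: 96-well plates. Treatment: test compound, 48 hours, 5 concentrations. Analysis: linear interpolation between bracketing concentrations; unreached endpoints set to highest concentration. GI50 marks 50% less growth. At the TGI there is no net growth.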

Common to all, as to assay: inhibition of tumour cell growth, NCI panel, 48 h
In assay [1] the test system is IGROV1 ovarian.
In assay [2] the test system is T-47D breast.
Assay [3] relates to UO-31 renal.
Assay [4] relates to BT-549 breast.
Assay [5] relates to CAKI-1 renal.
Assay [6] concerns UACC-257 melanoma.
The subject of assay [7] is SK-MEL-2 melanoma.
The test system of assay [8] is KM12 colon.
For assay [9], the system named is SN12C renal.
Assay [10] relates to COLO 205 colon.

For `O=C(Nc1ccc(F)cc1)Nc1ccccc1CNc1nc(Nc2ccc(OCCN3CCCC3)cc2)ncc1Cl`, the GI50 in assay [1] was 5.27 µM; in assay [2] it was 1.48 µM; in [3], 0.742 µM; in assay [4] it was 5.15 µM; in assay [5], 2.87 µM; in assay [6] it was 1.07 µM. Further, the GI50 was 8.7 µM in assay [7], 1.81 µM in assay [8] and 0.984 µM in assay [9]. In addition, the TGI in assay [1] stood at 13.3 µM; in [2], 4.28 µM; in [3] it was 1.49 µM; in assay [4] it was 11.2 µM; in assay [5] it was 9.25 µM; in assay [6], 2.35 µM. In addition, the TGI came to 18.4 µM in [7], 6.35 µM in [8] and 2.01 µM in assay [9].
Consider `CC(C)[C@H]1CC[C@H]2[C@@H](CC[C@H]3[C@](C)(CN)CCC[C@]23C)C1`, for which the GI50 in [2] was 1.96 µM; in [3], 1.76 µM; in assay [4], 15.6 µM; in assay [5], 1.71 µM; in assay [6] it was 2.68 µM; in [10], 1.74 µM. Further, the GI50 in assay [7] is 2.57 µM; in [8] it was 1.79 µM; in assay [9], 1.75 µM. In addition, the TGI in [2] was determined as 4.52 µM; in [3], 4.21 µM; in assay [4] it was 37.5 µM; in assay [5], 4.2 µM; in assay [6], 6.02 µM; in [10], 3.27 µM. Further, the TGI in assay [7] came out at 5.99 µM; in assay [8], 3.18 µM; in assay [9], 3.65 µM.
In the case of `O=S(=O)(Cc1ccc(Cl)cc1Cl)c1ccc(Cl)cc1`, the GI50 in assay [1] is 0.445 µM; in assay [2], 6.02 µM; in [3], 1.03 µM; in assay [4] it was 1.54 µM; in assay [5] it was 0.52 µM; in assay [10] it was 0.548 µM. The GI50 in assay [7] is 0.326 µM; in assay [8], 0.372 µM; in assay [9], 1.5 µM. Also, the TGI in [1] is > 21.9 µM; in assay [2] it was > 100 µM; in assay [3] it was > 53.3 µM; in assay [4] it was > 75.4 µM; in assay [5] it was > 100 µM; in assay [10] it was 5.52 µM. Moreover, the TGI in assay [8] and in assay [9] was > 100 µM in each case.
On to `COC(=O)C1=C(C)NC(C)=C(C(=O)OC)C1/C=C(\Cl)c1ccc(Cl)c(Cl)c1`, for which the GI50 in assay [1] is 15.5 µM; in [2] it was 20.2 µM; in [3] it was 13.9 µM; in assay [4], 16.6 µM; in assay [5], 13.7 µM; in [6], 18 µM. Moreover, the GI50 is 17.9 µM in assay [10], 15.4 µM in assay [8] and 14 µM in assay [9]. Besides, the TGI in assay [1] was determined as 28.9 µM; in [2], 50.1 µM; in assay [3], 27.1 µM; in assay [4], 32.2 µM; in [5] it was 27.2 µM; in [6], 36.1 µM. The TGI came to 43.2 µM in assay [10], 31.5 µM in assay [8] and 27.5 µM in assay [9].
On to `Nc1ncnc2c1ncn2Cc1ccc(C23CC4CC(CC(C4)C2)C3)c(OCc2cc(F)c(F)cc2F)c1`, for which the GI50 in assay [1] is 7.54 µM; in [2] it was > 100 µM; in assay [4], > 100 µM; in assay [5] it was 2.32 µM; in assay [6], 2.33 µM; in assay [10], 14.4 µM. Further, the GI50 in assay [7] was > 100 µM; in assay [8], 3.92 µM; in assay [9], 11.7 µM. In addition, the TGI in assay [1] is > 100 µM; in [2], > 100 µM; in [4], > 100 µM; in assay [5], 6.9 µM; in assay [6] it was 7.4 µM; in [10], > 100 µM. The TGI in assay [7] is > 100 µM; in [8], > 100 µM; in assay [9], 67.5 µM.
For `O=C1C2C(C(=O)[N]1[Hg][c]1cccs1)C1(Cl)C(Cl)=C(Cl)C2(Cl)C1(Cl)Cl` (centres undefined), the GI50 is 1.29 µM in assay [1]; 0.57 µM in [2]; 1.74 µM in assay [3]; 0.984 µM in [4]; 1.29 µM in assay [5]; 1.28 µM in [6]. Besides, the GI50 is 1.22 µM in assay [10], 1.56 µM in assay [7] and 11.7 µM in [8]. For the same molecule, the TGI in assay [1] is 3.52 µM; in [2], 2.94 µM; in assay [3] it was 3.21 µM; in assay [4], 2.24 µM; in assay [5], 2.64 µM; in assay [6], 2.83 µM. In addition, the figures for the TGI in assay [10], in [7] and in assay [8] were 2.65 µM, 3.23 µM and 24.3 µM, respectively.
For `COc1cc2c3c(n(CCCN(CCN)CCCn4c5c(c6cc(OC)c(OC)cc6c4=O)C(=O)c4cc6c(cc4-5)OCO6)c(=O)c2cc1OC)-c1cc2c(cc1C3=O)OCO2`, the GI50 in assay [2] is 0.457 µM; in assay [3], 0.892 µM; in assay [4], 5.08 µM; in [5], 0.271 µM; in [6], 11.6 µM; in assay [10], 0.645 µM. Also, the GI50 in assay [7] was 21.1 µM; in assay [8] it was 4.04 µM; in assay [9] it was 0.141 µM. Moreover, the TGI in assay [2] was > 100 µM; in [3] it was 8.18 µM; in assay [4], > 79.3 µM; in assay [5] it was 3.23 µM; in assay [6], > 89.1 µM; in assay [10] it was > 57 µM. In addition, the results for the TGI in assay [7], in assay [8] and in assay [9] were > 100 µM, > 37 µM and 0.755 µM, respectively.
For the molecule `COc1cc2c(cc1O)-c1c(cnn1-c1ccc([N+](=O)[O-])cc1)CCC2`, the TGI in assay [1] is 18.7 µM; in assay [2], > 100 µM; in assay [4], 76.1 µM; in [5], 38.5 µM; in [6] it was 52 µM; in assay [10], 38.1 µM. For the same molecule, the TGI in assay [7] amounted to 37.4 µM; in [8], 31.7 µM; in [9] it was 14.7 µM.
